Test system: goblet cells
Test: Goblet cell density in eye tissue of scopolamine-treated rats (dry eye model), PAS-stained thin sections, blinded grader ratings
Assay type: in vivo, Sprague-Dawley male rats
Procedure: Sprague-Dawley male rats (7 weeks old, average weight=444 g) were treated with subcutaneous (SC) scopolamine hydrobromide in normal saline (n=30, 25 mg/kg injected 3× per day) or nothing (n=4). Scopolamine treated animals received either (a) 50 mM meglumine in the drinking water (n=10), (b) a 3× daily eyemist containing 2% by weight of meglumine hydrochloride (n=10) or (c) a 3× daily eyemist of normal saline (n=10). Treatment was for 4.5 weeks. One animal receiving scopolamine and the meglumine eyemist died just prior to the end of the study, and the eye tissues were not analyzed. Animals were euthanized and the eye orbit and surrounding tissue from both eyes were removed and placed in formalin. Tissues were embedded in paraffin, thin sections prepared, and stained with periodic acid Schiff to more easily visualize the goblet cells.
Animals not treated with scopolamine or with scopolamine and a saline eyemist had the lowest levels of goblet cells. […] The difference in goblet cell density between the untreated animals and those treated with oral meglumine was significant for one grader (p=0.04) and approached significance for the other (p=0.07). The meglumine eye mist referred to in Table 1 was obtained from Piedmont Chemical Industries (High Point, N.C.).

CNC[C@H](O)[C@@H](O)[C@H](O)[C@H](O)CO [oral meg, meglumine]
extent of regions containing goblet cells (FIG. 1) (scopolamine-dosed rats, oral meglumine versus saline eyemist): more extensive regions containing goblet cells | levels of goblet cells compared with the other groups (in words) (scopolamine-treated rats, 50 mM meglumine in the drinking water, 4.5 weeks): highest levels of goblet cells

— patent publication US9861593B2, “Method for treating or preventing dry eye disorders using alkylamino-polyhydroxyalkanes” (Dynamis Pharmaceuticals, Inc., priority 2008, dated 2018)
